Measurements: patent publication US8653087B2, “Pyrido [5, 4-D] pyrimidines as cell proliferation inhibitors” (Boehringer Ingelheim International GmbH, priority 2008, dated 2014)

What follows are compounds tested against B-Raf (V600E)-kinase (Homo sapiens (Human), UniProt P15056, V600E) (assay: Kinase test B-RAF (V600E)). Settings: B-RAF (V600E) kinase test, 250 μM ATP.
Type: biochemical
In short: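 Read-out is DELFIA europium TRF of phospho-MEK (Ser217/221) on biotinylated MEK1 bound to streptavidin plates, IC50 from dose-response. Reaction ran 60 min at RT with 250 μM ATP, after a 24 h RT preincubation of compound with B-Raf (V600E) kinase, 5% DMSO final.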

Sequence of B-Raf (V600E)-kinase (P15056 whole entry V600E): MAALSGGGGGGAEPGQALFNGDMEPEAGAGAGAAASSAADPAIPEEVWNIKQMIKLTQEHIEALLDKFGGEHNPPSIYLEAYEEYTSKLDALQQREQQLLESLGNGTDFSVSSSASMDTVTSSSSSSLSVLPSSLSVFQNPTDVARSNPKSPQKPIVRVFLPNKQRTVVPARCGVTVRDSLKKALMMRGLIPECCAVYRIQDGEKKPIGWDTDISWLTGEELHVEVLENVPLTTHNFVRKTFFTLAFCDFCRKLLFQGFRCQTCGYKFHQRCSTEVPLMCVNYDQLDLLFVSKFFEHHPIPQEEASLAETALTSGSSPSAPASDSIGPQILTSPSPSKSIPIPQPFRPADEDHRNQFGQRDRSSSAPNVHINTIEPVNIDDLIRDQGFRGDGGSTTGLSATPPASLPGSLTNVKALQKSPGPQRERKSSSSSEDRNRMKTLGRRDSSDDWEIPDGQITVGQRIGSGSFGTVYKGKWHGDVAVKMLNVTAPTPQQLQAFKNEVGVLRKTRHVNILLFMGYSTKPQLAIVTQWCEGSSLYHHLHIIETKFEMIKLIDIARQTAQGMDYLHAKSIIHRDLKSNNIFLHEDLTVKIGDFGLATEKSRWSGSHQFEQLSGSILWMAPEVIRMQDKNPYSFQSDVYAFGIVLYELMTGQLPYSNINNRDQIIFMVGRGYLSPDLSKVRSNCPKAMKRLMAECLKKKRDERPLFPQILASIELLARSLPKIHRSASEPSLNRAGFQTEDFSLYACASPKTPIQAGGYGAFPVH

SMILES | IC50
COc1ccc(C(=O)Nc2cccc(C(F)(F)F)c2)cc1Nc1ncnc2c(N)nc(N3CCN(CC4CCN(C)CC4)CC3)nc12 [I-33] | 12 nM
CCN1CCN(c2cc(NC(=O)c3ccc(C)c(Nc4ncnc5cnc(N6CCN(CCOC)CC6)nc45)c3)cc(C(F)(F)F)c2)CC1 [III-424] | 6 nM
Cc1ccc(C(=O)Nc2ccc(C#N)c(C(F)(F)F)c2)cc1Nc1ncnc2cnc(N3CCOCC3)nc12 [III-340] | 4 nM
CN(C)C1CCN(c2ncc3ncnc(Nc4cc(Cl)cc(C(=O)Nc5cc(C(C)(C)C)nn5C)c4)c3n2)C1 (centres unmarked) [III-379] | 6 nM
CC(C)(C)c1cc(NC(=O)c2ccc(C(F)(F)F)c(Nc3ncnc4cnc(N5CCOCC5)nc34)c2)no1 [III-63] | 13 nM
COc1c(NC(=O)c2ccc(C)c(Nc3ncnc4cnc(N5CCCN(C)CC5)nc34)c2)cc(C(C)(C)C)cc1NS(C)(=O)=O [III-181] | 17 nM
CC(C)(C)c1cc(NC(=O)c2ccc(C(F)(F)F)c(Nc3ncnc4cnc(N5CCCCC5)nc34)c2)no1 [III-61] | 2240 nM
CC(C)(C)c1cc(NC(=O)c2ccc(Cl)c(Nc3ncnc4cnc(N5CCCC5)nc34)c2)no1 [III-76] | 11 nM
Cc1ccc(C(=O)Nc2cc(C(F)(F)F)ccn2)cc1Nc1ncnc2cnc(N3CCCCC3)nc12 [III-335] | 8 nM
COCCN1CCN(c2ncc3ncnc(Nc4cc(C(=O)Nc5cc(C(F)(F)F)ccc5-n5cccn5)ccc4C)c3n2)CC1 [III-538] | 10 nM
Cc1ccc(C(=O)Nc2nnc(C(F)(F)F)s2)cc1Nc1ncnc2cnc(N3CCCN(C)CC3)nc12 [III-282] | 1400 nM
Cc1ccc(NC(=O)c2cccc(C(F)(F)F)c2)cc1Nc1ncnc2c(N)nc(N3CCN(C(C)C)CC3)nc12 [II-17] | 13 nM
COCCN1CCN(c2ncc3ncnc(Nc4cc(C(=O)Nc5cc(C(C)(C)C)cc(NS(C)(=O)=O)c5OC)ccc4C)c3n2)CC1 [III-505] | 49 nM
Cc1ccc(NS(=O)(=O)c2cccc(C(F)(F)F)c2)cc1Nc1ncnc2cnc(N3CCN(C)CC3)nc12 [IV-61] | 10000 nM
Cc1ccc(C(=O)Nc2cc(C(C)(C)C)on2)cc1Nc1ncnc2cnc(N3CCN(C4CC4)CC3)nc12 [III-493] | 5 nM
Cc1ccc(C(=O)Nc2cccc(S(=O)(=O)N(C)C)c2)cc1Nc1ncnc2cnc(N3CCNCC3)nc12 [III-344] | 7 nM
CNc1ncnc2c(Nc3cccc(NC(=O)c4cccc(C(C)(C)C#N)c4)c3)ncnc12 [VIII-3] | 13 nM

More lines, in order of falling IC50, values ahead:

IC50 | SMILES
4 nM | Cc1ccc(NC(=O)c2cccc(C(F)(F)F)c2)cc1Nc1ncnc2c(N)nc(N3CCN(CC4CCN(C)CC4)CC3)nc12 [II-14]
3 nM | Cc1ccc(C(=O)Nc2cc(C(F)(F)F)ccn2)cc1Nc1ncnc2cnc(NCc3ccccc3)nc12 [III-522]
3 nM | Cc1ccc(C(=O)Nc2cccc(C(C)(C)C#N)c2)cc1Nc1ncnc2cnc(N3CCCCC3)nc12 [III-213]
3 nM | COc1ccc(C(=O)Nc2cc(C(C)(C)C)on2)cc1Nc1ncnc2cnc(N3CCCCCC3)nc12 [III-87]
2 nM | COc1ccc(C(=O)Nc2ccc(OC)c(C(F)(F)F)c2)cc1Nc1ncnc2cnc(N3CCOCC3)nc12 [III-25]
2 nM | Cc1ccc(C(=O)Nc2cc(C(C)(C)C)on2)cc1Nc1ncnc2cnc(N3C[C@@H](C)N[C@@H](C)C3)nc12 [III-496]
2 nM | Cc1ccc(C(=O)Nc2cc(CN3CCCC3)cc(C(F)(F)F)c2)cc1Nc1ncnc2cnc(N(C)C)nc12 [III-115]
2 nM | COc1ncc2ncnc(Nc3cc(C(=O)Nc4ccc(OC)c(C(F)(F)F)c4)ccc3C)c2n1 [III-569]
2 nM | Cc1ccc(NC(=O)c2cccc(C(F)(F)F)c2)cc1Nc1ncnc2c(N)nc(N3CCN(C4CCN(C)CC4)CC3)nc12 [II-8]
1 nM | COc1ccc(NC(=O)c2ccc(C)c(Nc3ncnc4cnc(N5CCCOCC5)nc34)c2)cc1C(F)(F)F [III-551]
1 nM | Cc1ccc(C(=O)Nc2cc(N3CCCN(C)CC3)cc(C(F)(F)F)c2)cc1Nc1ncnc2cnc(N3CC[C@H](F)C3)nc12 [III-458]
1 nM | COc1ccc(NC(=O)c2ccc(C)c(Nc3ncnc4cnc(NCC5CCCCO5)nc34)c2)cc1C(F)(F)F (centres unmarked) [III-544]
